Measured values as given in patent US12441768B2, “Compositions and methods for treating endometriosis” (EndoMet Biosciences, Inc., priority 2018, dated 2025).
*1 amine or outer side, *2 acyl side, *3 side chain or, on linkers, in order; H or OH if unused. Where a SMILES comes first, the peptide text is derived from it. Bridges are numbered along the chain shown (N, C = ends). [ ]: non-standard residue; d: D form. Glutaryl = O=C(CCCC(=O)[*:2])[*:1]; NMeNva = CCC[C@H](NC)C(=O)O

Molecular target: T1, β-catenin (Homo sapiens, UniProt P35222)
T1 sequence (P35222 1-781): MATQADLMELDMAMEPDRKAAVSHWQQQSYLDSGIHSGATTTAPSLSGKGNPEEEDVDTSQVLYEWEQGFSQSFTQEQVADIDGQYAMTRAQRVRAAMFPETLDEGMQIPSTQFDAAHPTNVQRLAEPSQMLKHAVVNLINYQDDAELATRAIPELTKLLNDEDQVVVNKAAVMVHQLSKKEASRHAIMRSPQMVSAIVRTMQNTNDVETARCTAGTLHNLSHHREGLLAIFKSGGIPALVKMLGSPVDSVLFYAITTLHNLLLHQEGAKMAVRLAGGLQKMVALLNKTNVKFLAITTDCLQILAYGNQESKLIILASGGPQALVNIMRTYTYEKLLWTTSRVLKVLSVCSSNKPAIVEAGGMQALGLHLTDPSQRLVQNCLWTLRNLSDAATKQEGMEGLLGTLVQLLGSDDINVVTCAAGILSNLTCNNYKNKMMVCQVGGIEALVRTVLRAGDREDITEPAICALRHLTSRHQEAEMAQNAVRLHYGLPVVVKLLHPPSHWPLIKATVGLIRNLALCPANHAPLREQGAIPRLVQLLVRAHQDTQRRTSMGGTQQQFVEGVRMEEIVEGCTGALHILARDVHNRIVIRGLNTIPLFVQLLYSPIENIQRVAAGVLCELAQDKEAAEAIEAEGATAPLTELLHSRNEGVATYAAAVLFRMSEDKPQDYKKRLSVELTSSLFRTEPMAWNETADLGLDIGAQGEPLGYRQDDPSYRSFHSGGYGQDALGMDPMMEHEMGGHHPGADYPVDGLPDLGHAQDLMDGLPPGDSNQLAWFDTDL
Test: KD50 measurement using competitive fluorescence polarization (FP) with labelled TCF4
Format: binding
Settings: for Kd / β-Cat FP Hill slope: fluorescence polarization, β-catenin; for Kd: read-out: β-Cat FP KD
Text: Fluorescence polarization (FP) is another method used to analyze protein-ligand interactions. This methodology measures the change in fluorescence light emitted by a labelled compound free vs. conjugated to another compound in solution. Upon binding of the fluorescent molecule to a complex, polarization increases because of limited rotation of the fluorescent tracer. Competitive FP is often utilized in drug screens as it is formatted for high throughput screens in a plate format. This immunoassay is performed by introducing a non-conjugated drug to compete for binding to the labelled competitor-ligand complex, leading to a reduction in polarization. TCF4 protein is utilized for the competitive assay as (1) this protein influences the full activation of the Wnt pathway and (2) shares homology with the β-catenin inhibitors. Exemplary methodology is described in Example 13. Data were analyzed and plotted in Microsoft Excel (Microsoft, Redmond, WA).
5 nM of labelled TCF4 protein was added to solution of 100 nM of β-catenin and incubated at room temperature in 96-well plates (Greiner 96 Flat transparent plates, Millipore Sigma, Carlsbad CA). Varying concentrations of β-catenin inhibitor candidate (SEQ ID NO: 404) were then added in a series of serial dilutions from 10 nM to 30 uM of inhibitor in different wells of the plate. The fluorescence polarization was read by Infinite M1000 (Tecan, Baldwin Park CA) at excitation wavelength of 470 nm and measured at emission wavelength of 520 nm. […] The experiments were performed three times and data were analyzed and plotted in Microsoft Excel (Microsoft, Redmond, WA).

Kd [µM]	β-Cat FP Hill slope	SMILES	Binding to β-catenin (fluorescence polarization) (5 nM labelled TCF4, 100 nM β-catenin, 10 nM to 30 uM inhibitor)
10 to 30	0.98	CCC[C@H]1C(=O)N[C@@H](CCC(N)=O)C(=O)N[C@@H](CO)C(=O)N[C@@H](CC(C)C)C(=O)N[C@@H](Cc2ccccc2)C(=O)N(C)[C@@H](CCC)C(=O)N2CCC[C@H]2C(=O)N2CCC[C@H]2C(=O)N(C)[C@@H](CCC)C(=O)N[C@H](C(N)=O)CCCCNC(=O)CCCC(=O)N[C@@H](CCSC)C(=O)N[C@@H](CCSC)C(=O)N1C [compound 3] (MM[NMeNva]QSLF[NMeNva]PP[NMeNva]K-NH2; linker N-12 via Glutaryl)	
1 to 10	0.5	CCC[C@H]1C(=O)N[C@@H](Cc2c[nH]c3ccccc23)C(=O)N[C@@H](CC(C)C)C(=O)N[C@@H](CO)C(=O)N[C@@H](CCCNC(=N)N)C(=O)N[C@@H](CCC(N)=O)C(=O)N[C@@H](Cc2c[nH]c3ccccc23)C(=O)N[C@@H]([C@@H](C)CC)C(=O)N[C@@H](C(C)C)C(=O)N[C@H](C(N)=O)CCCCNC(=O)CCCC(=O)N[C@@H](CCSC)C(=O)N[C@@H](Cc2c[nH]c3ccccc23)C(=O)N1C [compound 5] (HELM PEPTIDE1{M.W.[CCC[C@@H](C(=O)[*:2])N(C)[*:1]].W.L.S.R.Q.W.I.V.K.[am]}|CHEM1{[O=C(CCCC(=O)[*:2])[*:1]]}$PEPTIDE1,CHEM1,1:R1-1:R1|PEPTIDE1,CHEM1,12:R3-1:R2$$$V2.0)	
1 to 10	1.7	CC[C@H](C)[C@H](NC(=O)[C@H](CC(C)C)NC(=O)[C@H](Cc1ccccc1)NC(=O)[C@H](Cc1c[nH]c2ccccc12)NC(=O)[C@@H](N)CCSC)C(=O)N[C@@H](CO)C(=O)N[C@@H](Cc1ccccc1)C(=O)N[C@@H](C)C(=O)NCC(=O)O [compound 8] (H-MWFLISFAG-OH)	
1 to 10	0.73	CC[C@H](C)[C@H](NC(=O)[C@H](CC(C)C)NC(=O)[C@H](Cc1ccccc1)NC(=O)[C@H](Cc1c[nH]c2ccccc12)NC(=O)[C@@H](N)CCSC)C(=O)N[C@@H](C)C(=O)N[C@@H](Cc1ccccc1)C(=O)N[C@@H](Cc1c[nH]c2ccccc12)C(=O)NCC(=O)O [compound 10] (H-MWFLIAFWG-OH)	
0.4 to 1	1.31	CSCC[C@H](N)C(=O)N[C@@H](Cc1c[nH]c2ccccc12)C(=O)N[C@@H](Cc1ccccc1)C(=O)N[C@@H](CC(C)C)C(=O)N[C@@H](C)C(=O)N[C@@H](CO)C(=O)N[C@@H](Cc1ccccc1)C(=O)N[C@@H](Cc1c[nH]c2ccccc12)C(=O)NCC(=O)O [compound 11] (H-MWFLASFWG-OH)	
1 to 10	0.5	CC[C@H](C)[C@H](NC(=O)[C@H](C)NC(=O)[C@H](Cc1ccccc1)NC(=O)[C@H](Cc1c[nH]c2ccccc12)NC(=O)[C@@H](N)CCSC)C(=O)N[C@@H](CO)C(=O)N[C@@H](Cc1ccccc1)C(=O)N[C@@H](Cc1c[nH]c2ccccc12)C(=O)NCC(=O)O [compound 12] (H-MWFAISFWG-OH)	
0.4 to 1	0.86	CC[C@H](C)[C@H](NC(=O)[C@H](CC(C)C)NC(=O)[C@H](C)NC(=O)[C@H](Cc1c[nH]c2ccccc12)NC(=O)[C@@H](N)CCSC)C(=O)N[C@@H](CO)C(=O)N[C@@H](Cc1ccccc1)C(=O)N[C@@H](Cc1c[nH]c2ccccc12)C(=O)NCC(=O)O [compound 13] (H-MWALISFWG-OH)	
1 to 10	0.69	CC[C@H](C)[C@@H]1NC(=O)[C@H](CC(C)C)NC(=O)[C@H](Cc2ccccc2)NC(=O)[C@H](Cc2c[nH]c3ccccc23)NC(=O)[C@@H](N)CCCCNC(=O)CC[C@@H](C(=O)O)NC(=O)[C@H](Cc2c[nH]c3ccccc23)NC(=O)[C@H](Cc2ccccc2)NC(=O)[C@H](CO)NC1=O [compound 226] (HELM PEPTIDE1{K.W.F.L.I.S.F.W.E}$PEPTIDE1,PEPTIDE1,1:R3-9:R3$$$V2.0)	
1 to 10	0.5	CC[C@H](C)[C@@H]1NC(=O)[C@H](CC(C)C)NC(=O)[C@H](Cc2ccccc2)NC(=O)[C@H](Cc2c[nH]c3ccccc23)NC(=O)[C@@H](N)CCCCNC(=O)CC[C@@H](C(=O)NCC(=O)O)NC(=O)[C@H](Cc2ccccc2)NC(=O)[C@H](CO)NC1=O [compound 227] (HELM PEPTIDE1{K.W.F.L.I.S.F.E.G}$PEPTIDE1,PEPTIDE1,1:R3-8:R3$$$V2.0)	

The remaining lines, values behind:

SMILES	Kd [µM]	β-Cat FP Hill slope	Binding to β-catenin (fluorescence polarization) (5 nM labelled TCF4, 100 nM β-catenin, 10 nM to 30 uM inhibitor)
CCCCCCCCCCCCCCCCCC(=O)N[C@@H](Cc1c[nH]c2ccccc12)C(=O)N(C)[C@@H](Cc1c[nH]c2ccccc12)C(=O)N[C@@H](CCC(=O)O)C(=O)NC(C)(CO)C(=O)N[C@H](C(=O)N[C@@H](CC(C)C)C(=O)N[C@@H](CC(=O)O)C(=O)N[C@@H](CCC(=O)O)C(=O)N[C@@H](Cc1c[nH]cn1)C(=O)NC(C)(C(=O)N[C@@H](CCC(N)=O)C(=O)N[C@@H](CCCNC(=N)N)C(=O)N[C@H](C(=O)N[C@@H](Cc1c[nH]c2ccccc12)C(=O)O)C(C)C)C(C)C)[C@@H](C)CC (single isomer, unassigned) [SEQ ID NO: 393/500, Stearyl-W-NmeW-E-aMeS-ILDEH-aMeV-QRVW-COOH]	> 30		
CC[C@H](NC(=O)[C@@H](NC(=O)[C@H](CC(C)C)NC(=O)[C@H](CC1CCCCC1)NC(=O)[C@H](Cc1c[nH]c2ccccc12)NC(=O)[C@H](CCCCN)NC(=O)COCCOCCNC(=O)[C@H](CCCNC(=N)N)NC(=O)[C@H](CCCNC(=N)N)NC(=O)[C@H](CCCNC(=N)N)NC(=O)[C@H](CCC(N)=O)NC(=O)[C@H](CCCNC(=N)N)NC(=O)[C@H](CCCNC(=N)N)NC(=O)[C@H](CCCCN)NC(=O)[C@H](CCCCN)NC(=O)[C@@H](N)CCCNC(=N)N)[C@@H](C)CC)C(=O)N[C@@H](C)C(=O)N[C@@H](Cc1c[nH]c2ccccc12)C(=O)N[C@@H](CC(=O)O)C(=O)O [282/493] (HELM PEPTIDE1{R.K.K.R.R.Q.R.R.R.[O=C(COCCOCCN[*:1])[*:2]].K.W.[Cha].L.I.[Abu].A.W.D}$$$$V2.0)		0.77	
CC[C@H](C)[C@@H]1NC(=O)[C@@H](NC(=O)[C@H](CCC(N)=O)NC(=O)[C@H](C)N(C)C(=O)[C@H](Cc2c[nH]c3ccccc23)NC(C)=O)CCCCNC(=O)CC[C@@H](C(=O)N[C@@H](Cc2c[nH]cn2)C(=O)N[C@H](C(=O)N[C@@H](CCC(N)=O)C(=O)N[C@@H](CCCNC(=N)N)C(=O)N[C@H](C(=O)N[C@@H](Cc2c[nH]c3ccccc23)C(=O)NCC(N)=O)C(C)C)C2CCCCC2)NC(=O)[C@H](CC(=O)O)NC(=O)[C@H](CC(C)C)NC1=O [SEQ ID NO: 404, cyclo-AcNH-W-NmeA-QK*ILDE*H-Chg-QRVWG-NH2] (HELM PEPTIDE1{[ac].W.[meA].Q.K.I.L.D.E.H.[O=C([C@@H](N[*:1])C1CCCCC1)[*:2]].Q.R.V.W.G.[am]}$PEPTIDE1,PEPTIDE1,5:R3-9:R3$$$V2.0)			binds β-catenin in a concentration-dependent manner
CC[C@H](C)[C@H](NC(=O)[C@H](CC(C)C)NC(=O)[C@H](Cc1ccccc1)NC(=O)[C@H](Cc1c[nH]c2ccccc12)NC(=O)[C@H](CCSC)NC(=O)[C@H](CCCNC(=N)N)NC(=O)[C@H](CO)NC(=O)[C@@H](N)CCSC)C(=O)N[C@@H](CO)C(=O)N[C@@H](Cc1ccccc1)C(=O)N[C@@H](Cc1c[nH]c2ccccc12)C(=O)N[C@@H](CCCCN)C(N)=O [compound 6] (H-MSRMWFLISFWK-NH2)	> 30		
CC[C@H](C)[C@H](NC(=O)[C@H](CC(C)C)NC(=O)[C@H](Cc1ccccc1)NC(=O)[C@H](Cc1c[nH]c2ccccc12)NC(=O)[C@@H](N)CCSC)C(=O)N[C@@H](CO)C(=O)N[C@@H](Cc1ccccc1)C(=O)N[C@@H](Cc1c[nH]c2ccccc12)C(=O)N[C@@H](C)C(=O)O [compound 7] (H-MWFLISFWA-OH)	10 to 30	0.5	
CC[C@H](C)[C@H](NC(=O)[C@H](CC(C)C)NC(=O)[C@H](Cc1ccccc1)NC(=O)[C@H](Cc1c[nH]c2ccccc12)NC(=O)[C@@H](N)CCSC)C(=O)N[C@@H](CO)C(=O)N[C@@H](C)C(=O)N[C@@H](Cc1c[nH]c2ccccc12)C(=O)NCC(=O)O [compound 9] (H-MWFLISAWG-OH)	1 to 10	0.51	
